Test results reported in US9763938B2, “Substituted quinoxalines as positive allosteric modulators of mGluR4” (MERCK PATENT GMBH, priority 2013, dated 2017).

Molecular target: T1, hmGluR4 (Homo sapiens, UniProt Q14833)
T1 construct: host or cells: HEK293T
Experiment: HEK-293 mGluR4 cells cAMP assay with EC20 L-glutamate (HTRF)
Type: cell-based
Details: positive allosteric activity at EC20 L-glutamate, 10 μM forskolin, HEK293T mGluR4 cells, read-out: hrmGluR4/HEK293T-hmGluR4 (EC50)
Procedure: HEK-293 mGluR4 Cells cAMP Assay with EC20 L-Glutamate
Using mGluR4 suspension cell format, 10 μM Forskolin (final conc.) used to induce the production of cAMP.
Test the positive allosteric activity of the compounds of the invention at EC20 (2.3 μM for mGluR4 and 4.3 μM for mGluR6) L-Glutamate,
cAMP dymanic2 kit is intended for the direct quantitative determination of cAMP and its principle is based on HTRF technology.
Cell Preparation: split cells at 80%-90% confluence. The following day, rinse the cells with DMEM without GlutaMax and change to Glutamine Starvation Media. Incubate overnight.
Prepare compound plate: Perform compound serial dilution (uses Matrix 4341 plate), using the Bravo liquid handling platform protocol (compound serial dilution) which adds DMSO to columns 1-24 (except cols. 3 and 13). Serial dilute compounds located in columns 3 and 13 at a 1:3 ratio; 10 points (10 ul of 3 mM compound into 20 ul DMSO). Use the Bravo liquid handling platform to transfer 1 ul from the serial dilution plate into Matrix 4314 plate to create stamp plates.
Dilute 20 mM Forskolin (in DMSO) stock solution in HBSS buffer to make a 20 uM solution (forskolin buffer; 2× solution). To the forskolin buffer, add glutamate to a concentration of 8 uM (compound dilution buffer; 2×EC20 glutamate and forskolin).
Using a multidrop, add 50 ul/well of compound dilution buffer to columns 1-22 of the 2 ul compound stamp plate. Columns 23 and 24 receive forskolin buffer containing 400 uM glutamate (EC100 glutamate; 2× solution). Columns 1 and 2 receive compound dilution buffer containing EC20 glutamate, which is the basal control. Add a glutamate dose response to row P of compound plate. Prepare the dose response by serial diluting glutamate at a 1:3 ratio in forskolin buffer starting at 2 mM glutamate (2×). Dilute the glutamate 9 times and transfer to compound plate.
Harvest cells: Rinse cells with pre-warmed HBSS-10 mM HEPES (without Ca Mg) and dissociate the cells from the flask with versene. Centrifuge the cells, remove the supernatant and suspend in pre-warmed HBSS+10 mM Hepes. Count the cells and centrifuge. Remove the supernatant and suspend the cells in HBSS+Hepes (with Ca Mg) at a density of 400,000 cells/ml.
Dispense 5 ul from the diluted compound plate into Greiner low volume cell plate using the Bravo liquid handling platform. Using a Multidrop with the small tubing cassette, dispense 5 ul of cells (2000 cells/well) onto the compounds contained in the low volume plates. Incubate the cells at 37° C., 5% CO2 for 30 minutes in the incubator.
Prepare cAMP-d2 and anti-cAMP-Crytate according to the instructions for the two step assay (see Cisbio manual) and add 10 ul of the mixed reagent to each well of the assay plate using the Multidrop. Incubate at room temperature for 60 minutes and read on the Envision plate reader using the mGluR low volume cAMP HTRF 384 well protocol. The readout is the calculated fluorescence ratio ([…]*10000).

T1 sequence (Q14833 33-912): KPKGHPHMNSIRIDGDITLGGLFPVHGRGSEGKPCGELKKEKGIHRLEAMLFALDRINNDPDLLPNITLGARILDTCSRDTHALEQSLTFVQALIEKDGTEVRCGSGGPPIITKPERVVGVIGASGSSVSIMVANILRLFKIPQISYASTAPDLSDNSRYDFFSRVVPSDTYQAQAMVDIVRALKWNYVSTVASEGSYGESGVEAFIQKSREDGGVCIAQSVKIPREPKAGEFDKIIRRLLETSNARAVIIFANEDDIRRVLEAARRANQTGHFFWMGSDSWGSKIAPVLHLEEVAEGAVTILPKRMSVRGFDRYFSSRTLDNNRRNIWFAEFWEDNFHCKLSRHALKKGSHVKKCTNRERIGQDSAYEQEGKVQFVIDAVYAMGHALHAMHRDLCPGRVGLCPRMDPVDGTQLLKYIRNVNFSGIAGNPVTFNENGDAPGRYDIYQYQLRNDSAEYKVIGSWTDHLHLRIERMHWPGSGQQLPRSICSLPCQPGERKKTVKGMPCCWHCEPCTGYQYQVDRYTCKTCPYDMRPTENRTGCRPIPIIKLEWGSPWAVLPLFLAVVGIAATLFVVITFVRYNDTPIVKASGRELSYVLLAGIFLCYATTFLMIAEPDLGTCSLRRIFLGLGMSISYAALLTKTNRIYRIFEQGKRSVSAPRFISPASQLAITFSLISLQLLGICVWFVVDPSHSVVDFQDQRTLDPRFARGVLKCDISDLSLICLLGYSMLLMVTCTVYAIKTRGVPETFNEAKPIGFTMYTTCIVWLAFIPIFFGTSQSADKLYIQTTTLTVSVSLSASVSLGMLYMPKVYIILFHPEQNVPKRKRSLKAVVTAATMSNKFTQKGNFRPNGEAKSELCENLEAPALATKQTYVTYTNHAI

Compound `Cc1cccc2nc(-c3ccccc3)c(-c3ccccc3)nc12` [Compound 5, 5-Methyl-2,3-diphenyl-quinoxaline] has an EC50 of 1000 to 10000 nM.
`Fc1ccccc1-c1nc2ccccc2nc1-c1ccccc1F` [Compound 9, 2,3-Bis-(2-fluoro-phenyl)-quinoxaline] gave an EC50 of 1000 to 10000 nM.
Compound `Oc1ccc(-c2nc3ccccc3nc2-c2ccccc2)cc1` [Compound 2, 4-(3-Phenyl-quinoxalin-2-yl)-phenol] has an EC50 of less than 1000 nM.
Compound `c1ccc(-c2nc3c(nc2-c2ccccc2)CCCC3)cc1` [Compound 8, 2,3-Diphenyl-5,6,7,8-tetrahydro-quinoxaline] has an EC50 of 1000 to 10000 nM.
`CC(=O)c1cccc2nc(-c3ccccc3)c(-c3ccccc3)nc12` [Compound 7, 1-(2,3-Diphenyl-quinoxalin-5-yl)-ethanone] was tested, and the EC50 was 1000 to 10000 nM.
`OC1CCN(c2nc3ccccc3nc2-c2ccccc2)CC1` [Compound 3, 1-(3-Phenyl-quinoxalin-2-yl)-piperidin-4-ol] showed an EC50 of less than 1000 nM.
`c1ccc(-c2nc3ccccc3nc2-c2cccc3cccnc23)cc1` [Compound 6, 2-Phenyl-3-quinolin-8-yl-quinoxaline] showed an EC50 of 1000 to 10000 nM.
In the case of `c1ccc(-c2nc3ccccc3nc2-c2ccnc3ccccc23)cc1` [Compound 1, 2-Phenyl-3-quinolin-4-yl-quinoxaline], the EC50 is reported as less than 1000 nM.
For `Fc1ccc(-c2nc3ccccc3nc2-c2cccc3[nH]ccc23)cc1F` [Compound 4, 2-(3,4-Difluoro-phenyl)-3-(1H-indol-4-yl)-quinoxaline], the EC50 was 1000 to 10000 nM.
`Fc1ccc(-c2nc3ccccc3nc2-c2ccccc2)cc1F` [Compound 10, 2-(3,4-Difluoro-phenyl)-3-phenyl-quinoxaline] was tested, and the EC50 was 1000 to 10000 nM.
